The source of these data is patent publication US5859067A, “Use of natural products and related synthetic compounds for the treatment of cardiovascular disease” (priority 1993, dated 1999).

Where “and” joins values, the source holds several entries; their conditions need not be identical. Equal values may be shown once.

In data set [1] the test system is ^45 Ca^2+ efflux from rat thoracic aorta smooth muscle cells. Put plainly: ^45 Ca^2+ efflux from cultured vascular smooth muscle cells. In kind it is cell-based. An excerpt:
^45 Ca efflux from cultured vascular smooth muscle cells consists of two major mechanisms; one is dependent on extracellular sodium, mediated by the Na^+ -Ca^2+ exchanger (Na^+ - dependent Ca^2+ efflux), and the other is independent of extracellular sodium but is mediated by the Ca^2+ pump (Na^+ - independent Ca^2+ efflux). The effect of striatol on the efflux of calcium (^45 Ca^2+) from rat thoracic aorta smooth muscle cells in culture was studied. ^45 Ca^2+ efflux is a measure of plasma membrane Ca^2+ -ATPase (plus Na^+ : Ca^2+ exchange) in intact (whole) cells.

Data set [2] relates to brine shrimp (Artemia salina Leach). Put plainly: Brine shrimp toxicity bioassay. In kind it is in vivo. The settings on record: 24 hours.
For data set [3], the system named is purified erythrocyte Ca^2+ -ATPase. Put plainly: Inhibition of purified erythrocyte Ca^2+ -ATPase. The class given is biochemical. To be noted: purified enzyme.
The target in data set [4] is T1, human erythrocyte plasma membrane Ca^2+ -ATPase (Homo sapiens, UniProt P23634).
T1 construct: Calmodulin-depleted erythrocyte membranes were prepared by continuous filtration through a hollow fibre; tissue New South Wales Red Cross Transfusion Service, Sydney; host or cells: human packed red blood cells (calmodulin-depleted erythrocyte membranes)
T1 sequence (P23634 1-1205 isoform P23634-6): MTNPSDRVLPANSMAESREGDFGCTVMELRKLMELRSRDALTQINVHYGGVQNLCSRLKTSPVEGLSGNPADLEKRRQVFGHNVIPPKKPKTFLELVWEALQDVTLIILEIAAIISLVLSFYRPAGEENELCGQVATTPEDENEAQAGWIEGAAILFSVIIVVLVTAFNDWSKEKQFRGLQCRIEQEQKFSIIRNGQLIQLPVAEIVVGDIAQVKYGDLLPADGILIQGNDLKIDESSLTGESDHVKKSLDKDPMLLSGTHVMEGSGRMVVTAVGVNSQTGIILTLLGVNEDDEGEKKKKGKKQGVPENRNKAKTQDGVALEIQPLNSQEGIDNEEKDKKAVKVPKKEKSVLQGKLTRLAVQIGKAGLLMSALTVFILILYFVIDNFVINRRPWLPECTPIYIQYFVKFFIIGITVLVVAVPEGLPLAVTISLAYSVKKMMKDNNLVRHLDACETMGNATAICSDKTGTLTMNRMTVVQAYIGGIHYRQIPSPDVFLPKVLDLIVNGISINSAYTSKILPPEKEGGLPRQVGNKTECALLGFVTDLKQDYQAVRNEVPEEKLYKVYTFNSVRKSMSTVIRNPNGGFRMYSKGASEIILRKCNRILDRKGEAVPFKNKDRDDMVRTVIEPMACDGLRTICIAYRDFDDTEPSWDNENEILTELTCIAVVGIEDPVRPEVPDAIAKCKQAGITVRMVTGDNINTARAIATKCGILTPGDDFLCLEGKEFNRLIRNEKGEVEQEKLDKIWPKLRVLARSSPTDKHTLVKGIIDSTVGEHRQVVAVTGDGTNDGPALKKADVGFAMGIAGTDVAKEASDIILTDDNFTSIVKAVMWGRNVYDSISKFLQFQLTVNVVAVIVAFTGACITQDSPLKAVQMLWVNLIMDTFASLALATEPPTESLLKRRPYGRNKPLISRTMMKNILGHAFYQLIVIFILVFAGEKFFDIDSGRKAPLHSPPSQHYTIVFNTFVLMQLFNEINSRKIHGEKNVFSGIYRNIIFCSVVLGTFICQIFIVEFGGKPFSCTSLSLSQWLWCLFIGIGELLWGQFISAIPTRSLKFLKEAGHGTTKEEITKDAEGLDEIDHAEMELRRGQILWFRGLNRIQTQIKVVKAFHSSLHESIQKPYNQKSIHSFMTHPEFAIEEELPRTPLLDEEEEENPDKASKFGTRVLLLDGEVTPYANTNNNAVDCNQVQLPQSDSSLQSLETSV
T1 sequence (P35613 140-385 partner limits assumed): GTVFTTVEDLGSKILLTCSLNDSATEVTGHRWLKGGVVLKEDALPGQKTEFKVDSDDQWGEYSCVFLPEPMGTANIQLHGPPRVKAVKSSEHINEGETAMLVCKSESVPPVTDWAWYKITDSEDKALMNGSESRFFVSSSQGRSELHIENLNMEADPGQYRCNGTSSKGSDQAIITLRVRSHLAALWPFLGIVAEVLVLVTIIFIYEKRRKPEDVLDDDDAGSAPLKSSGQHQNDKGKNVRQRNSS
Description: Ca^2+ -ATPase assay (erythrocyte membranes; Table 1). The class given is biochemical.

As a reminder, the LC50 is the concentration lethal to half of the exposed cells or organisms. A word on the inhibition: it is the relative decrease from the control value, in per cent. The IC50 is the concentration at which inhibition is half-maximal.

Regarding `Cc1c(O)cc(CCCCCCCCCCCCCCc2cc(O)c(C)c(O)c2)cc1O` [striatol, 1,14-bis(3,5-dihydroxy-4-methylphenyl)tetradecane], the “inhibition of ^45 Ca^2+ efflux” value is listed as “partial inhibition” in data set [1] (20 μM, 5 min); “partial inhibition” in data set [1] (20 μM, 10 min); “complete inhibition” in data set [1] (50 μM, 30 min). The “toxicity to brine shrimp (in words)” value in data set [2] is “relatively low toxicity”. In data set [2] (Artemia salina, read-out: LC50 brine shrimp), the LC50 was 11 µM and 4.9 µg/mL. Besides, the “inhibitory activity with purified erythrocyte Ca^2+ -ATPase” value in data set [3] was “confirmed”. The inhibition at 100 µM in data set [4] (at 100 μM, read-out: INHIBITION OF Ca^2+ -ATPase PERCENT (%)) turned out to be 98%. Moreover, in data set [4] (read-out: INHIBITION OF Ca^2+ -ATPase IC50), the IC50 amounted to 16 µM.
